Data set [1] concerns long-term potentiation (LTP) in hippocampal slice of C57BL/6 mouse. The data set can be described thus: LTP induction (fEPSP, Schaffer-Collateral stimulation) in hippocampal slices treated with amyloid-β. It counts as cell-based. How it is done: (§1) The mice of Example 1 were anesthetized and decapitated to excise brains. The extracted brains were kept in a cooled artificial cerebrospinal fluid (aCSF) (124 mM NaCl, 3 mM KCl, 26 mM NaHCO3, 2 mM CaCl2, 1 mM MgSO4, 10 mM Glucose, 1.25 mM NaH2PO4, and 2 mM CaCl2) saturated with 95% oxygen. Hippocampal slices were sampled from the brains, and the hippocampal slice samples were prepared with a thickness of 400 μm. Then, the hippocampal slice samples were recovered in the aCSF (124 mM NaCl, 3 mM KCl, 26 mM NaHCO3, 2 mM CaCl2, 1 mM MgSO4, 10 mM Glucose, 1.25 mM NaH2PO4, and 2 mM CaCl2) saturated with 95% oxygen at a temperature of 22 to 25° C. for 1 hour, and then used in the experiment.
(§2) For LTP induction, the hippocampal slice samples were located in a recording chamber, respectively, and then were observed by analyzing a field excitatory postsynaptic potential (fEPSP) by stimulation of Schaffer-Collateral fiber, while applying stimulations to the samples with 100 Hz every 200 ms, and the experiment was performed for 90 minutes. During the experiment, the aCSF was supplied by flowing with a rate of 2 to 3 ml/min at 30° C., and the obtained experimental results were compared using the ANOVA test known in the art. The obtained results are illustrated in FIGS. 1 to 7.
In order to examine effects of avenanthramide C methyl ester according to the present invention on the LTD in a hippocampal slice of a mouse, an LTP comparison experiment was performed in the same method as Experimental Example 1, and the results thereof are illustrated in FIGS. 14A to 14C.
An LTP comparison experiment was performed by treating the samples with amyloid-β and β-glucan in amounts as illustrated in Table 2 below two hours before the experiment by using the same method as in Experimental Example 1, except that β-glucan was used instead of avenanthramide C according to the present invention. The obtained results are illustrated in FIGS. 18 to 21.

Data set [2] has as its system GSK3β. Nature of the data set: GSK3β activity by western blotting (GSK3αβ and phosphorylated GSK3β S9) in hippocampal slices treated with amyloid-β. The class given is cell-based, mouse. Here is the method:
as §1
Thereafter, RIPA [50 mM Tris-HCl (PH 7.5), 150 mM NaCl, 1% Nonidet P-40, 0.5% sodium deoxycholate, 0.1% SDS, 1 mM phenylmethylsulfonyl fluoride (PMSF), 1 mM DTT, and 2 μg of leupeptin and aprotinin, respectively, were dissolved therein. The crushed cells were centrifuged with 12,000 g at 4° C. for 20 minutes, and the resulting soluble fractions were denatured in a Laemmli buffer and subjected to sodium dodecyl sulfate-polyacrylamide gel electrophoresis (SDS-PAGE). After gel electrophoresis, the separated proteins were transferred to a polyvinylidene difluoride (PVDF) membrane using electroblotting. The membrane was blocked with AMRESCO, RAPIDBLOCK solution (pH 7) and subjected to blotting by using enhanced chemiluminescence (ECL). For blotting, an antibody for GSK3αβ and an antibody for phosphorylated GSK3β (S9) were used. The obtained results are illustrated in FIGS. 8 and 9. GSK3β is an enzyme whose activity is inhibited by the phosphorylation of serine residue 9, and is known as a modulator of a wide range of functions such as energy metabolism, cell proliferation, apoptosis and the like.
In order to examine effects of avenanthramide C methyl ester according to the present invention on activity of GSK3β in a hippocampal slice of a mouse, the same western blotting as Experimental Example 2 was performed, and the results thereof are illustrated in FIG. 15.
(In general: In western blotting, separated proteins are transferred to a membrane and probed.)

Data set [3] deals with long-term potentiation (LTP) in hippocampal slice of Tg2576 induced AD mouse. Nature of the data set: LTP induction in hippocampal slice of Tg2576 induced AD mouse. It counts as cell-based. The following applies: 7-month-old Tg2576 mouse hippocampal slice, 50 μM compound. How it is done: as §1, §2
In order to examine effects of avenanthramide C according to the present invention on the LTD in a hippocampal slice of a 7-month-old Tg2576 induced AD mouse, an LTP comparison experiment was performed using a hippocampal slice of a gene manipulated mouse in the same method as Experimental Example 1, and the results thereof are illustrated in FIGS. 12A and 12B.
In order to examine effects of avenanthramide B methyl ester according to the present invention on the LTD in a hippocampal slice of a 7-month-old Tg2576 induced AD mouse, an LTP comparison experiment was performed in the same method as Experimental Example 1 using a hippocampal slice of a gene manipulated mouse, and the results thereof are illustrated in FIGS. 16A and 16B. […]

Data set [4] relates to long-term potentiation (LTP) in hippocampal slice of 5×FAD induced AD mouse. Nature of the data set: LTP induction in hippocampal slice of 5×FAD induced AD mouse. It counts as cell-based. How it is done: as §1
For LTP induction, the hippocampal slice samples were located in a recording chamber, respectively, and then were observed by analyzing a field excitatory postsynaptic potential (fEPSP) by stimulation of Schaffer-Collateral fiber, while applying stimulations to the samples with 100 Hz every 200 ms, and the experiment was performed for 90 minutes. During the experiment, the aCSF was supplied by flowing with a rate of 2 to 3 ml/min at 30° C., and the obtained experimental results were compared using the ANOVA test known in the art. The obtained results are illustrated in FIGS. 1 to 7. […]

Data set [5] deals with GSK3β. The data set can be described thus: GSK3β activity by western blotting in hippocampal slice of 5×FAD induced AD mouse. The class given is cell-based. Particulars: 4-month-old 5×FAD mouse hippocampal slice, 50 μM compound, versus untreated. How it is done: as §1
(§3) Thereafter, RIPA [50 mM Tris-HCl (PH 7.5), 150 mM NaCl, 1% Nonidet P-40, 0.5% sodium deoxycholate, 0.1% SDS, 1 mM phenylmethylsulfonyl fluoride (PMSF), 1 mM DTT, and 2 μg of leupeptin and aprotinin, respectively, were dissolved therein. The crushed cells were centrifuged with 12,000 g at 4° C. for 20 minutes, and the resulting soluble fractions were denatured in a Laemmli buffer and subjected to sodium dodecyl sulfate-polyacrylamide gel electrophoresis (SDS-PAGE). After gel electrophoresis, the separated proteins were transferred to a polyvinylidene difluoride (PVDF) membrane using electroblotting. […]

For data set [6], the system named is GSK3β. Nature of the data set: GSK3β activity by western blotting in hippocampal slice of Tg2576 induced AD mouse. It counts as cell-based. Particulars: 7-month-old Tg2576 mouse hippocampal slice, 50 μM compound, versus untreated. How it is done: as §1, §3
[7] abbreviates: hippocampal slice treated with 500 nM amyloid-β and 50 μM compound together.
[8] abbreviates: hippocampal slice treated with 500 nM amyloid-β and 500 μM compound together.

`COC(=O)c1cc(O)ccc1NC(=O)/C=C/c1ccc(O)c(O)c1` [avenanthramide C methyl ester]: the LTP induction entry in data set [1] (setting [7]) is listed as “induced”. In addition, the “activity of GSK3β” value in data set [2] (setting [7]) was “inhibited”.

`COc1cc(/C=C/C(=O)Nc2ccc(O)cc2C(=O)O)ccc1O` [avenanthramide B]: in data set [3], the LTP induction entry is “slightly induced”.

As for β-glucan [reference compound], the LTP induction result in data set [1] (hippocampal slice treated with 500 nM amyloid-β and 80 μg/ml β-glucan together) was “not induced”; in data set [1] (hippocampal slice treated with only 80 μg/ml β-glucan, no amyloid-β) it was “induced”; in data set [4] (induced AD mouse hippocampal slice, 80 μg/ml β-glucan), “not induced”.

Consider `O=C(/C=C/c1ccc(O)c(O)c1)Nc1ccc(O)cc1C(=O)O` [avenanthramide C], for which the LTP induction entry in data set [1] (hippocampal slice treated with 500 nM amyloid-β and 10 μM compound together) is reported as “not induced”; in data set [1] (setting [7]), “induced”; in data set [1] (setting [8]) it was “induced”; in data set [1] (hippocampal slice treated with only 50 μM compound, no amyloid-β) it was “induced”; in data set [1] (hippocampal slice treated with only 500 μM compound, no amyloid-β), “induced”; in data set [4] (4-month-old 5×FAD mouse hippocampal slice, 50 μM compound), “induced”. Also, in data set [3], the LTP induction result is reported as “induced”. For the same compound, the “toxicity in hippocampal slice (LTP experiment)” value in data set [1] (only 500 μM compound, no amyloid-β) is “not exhibiting toxicity”. Further, the “toxicity in hippocampal slice (GSK3β experiment)” value in data set [2] (500 nM amyloid-β and 500 μM compound together) is recorded as “without toxicity”. Also, the “activity of GSK3β” value in data set [2] (setting [7]) is recorded as “inhibiting the activity of GSK3β”; in data set [2] (setting [8]), “inhibited”; in data set [5], “more inhibited”; in data set [6], “more inhibited”.

Consider `O=C(/C=C/c1ccc(O)cc1)Nc1ccc(O)cc1C(=O)O` [avenanthramide A], for which, in data set [3], the LTP induction result is given as “induced”.

The values above are taken from patent US11141451B2, “Pharmaceutical composition and health functional food comprising oat extract avenanthramide C or derivative thereof as effective ingredient for prevention or treatment of neurodegenerative disease” (INDUSTRY FOUNDATION OF CHONNAM NATIONAL UNIVERSITY, priority 2016, dated 2021).
